# Target: Delta-type opioid receptor (Mus musculus, UniProt P32300)
# Assay: Agonist activity at delta opioid receptor in ICR mouse isolated vas deferens assessed as inhibition of electrically-stimulated muscle contraction
# Chain of Delta-type opioid receptor (P32300 whole entry): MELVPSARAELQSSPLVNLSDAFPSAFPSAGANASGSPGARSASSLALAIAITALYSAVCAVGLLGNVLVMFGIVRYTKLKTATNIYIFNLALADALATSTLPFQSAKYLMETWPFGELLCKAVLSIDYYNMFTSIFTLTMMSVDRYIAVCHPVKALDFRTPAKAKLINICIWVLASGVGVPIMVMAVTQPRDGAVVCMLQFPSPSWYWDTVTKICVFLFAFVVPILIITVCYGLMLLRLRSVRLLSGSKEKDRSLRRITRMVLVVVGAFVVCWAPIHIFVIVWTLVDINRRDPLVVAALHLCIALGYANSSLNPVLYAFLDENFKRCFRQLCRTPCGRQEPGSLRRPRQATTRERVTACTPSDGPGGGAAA
smiles,measurement,value
CC(C)C[C@H](NC(=O)[C@@H]1CCCN1C(=O)[C@H](Cc1ccc(F)cc1)NC(=O)CNC(=O)[C@@H](C)NC(=O)[C@@H](N)Cc1ccc(O)cc1)C(=O)N[C@@H](Cc1c[nH]c2ccccc12)C(=O)NCc1cc(C(F)(F)F)cc(C(F)(F)F)c1,IC50,12 nM

# — BindingDB's records for doi:10.1021/acs.jmedchem.5b01170 (University of Arizona, 2015)
